Source: US11559500B2, “Compositions and formulations for treatment of malignancies” (Neugate Pharma, LLC, priority 2017, dated 2023)

Test system: malignant primary or metastatic tumors involving the CNS
Assay: Clinical and radiological tumor response (Macdonald criteria), immune modulating regimen in addition to standard chemoradiotherapy
Type: in vivo, human
Settings: CNS melanoma subject, ipilimumab with radiotherapy, before the regimen
Experimental: Subjects used in the larger study were diagnosed with different primary or metastatic tumors involving the central nervous system: glioblastoma, carcinoma, or lymphoma. The oral immunomodulation regimen was offered to subjects in addition to standard therapy.
Samples were collected at scheduled clinic visits. […] Radiology studies were performed as part of standard evaluation.

Substance: ipilimumab
- Disease course on prior therapy: progressed
